# Experimental data from patent publication US20040022827A1, “Remedy for hepatopathy” (CHUGAI SEIYAKU KABUSIKI KAISHA, priority 1997, published 2004).
# Assays:
# [1] = tested on: Rat Model of Glactosamine-Induced Acute Hepatopathy; assay: Rat model of galactosamine-induced acute hepatopathy; format: in vivo; details: experimental fluids administered for one day; L-valine 16.88 g/L in lactated Ringer's, 100 mL/kg/day iv; mean ± SD
# Procedure: (§1) Crj: Donryu male rats aged 8-9 weeks and weighing 250 g or so were used. During the experiment, the rats were given a dedicated feed MF (product of Oriental Yeast) and water ad libitum. D-Galactosamine HCl (product of Sigma) was dissolved in physiological saline, adjusted to pH 7.0 with 1 N NaOH and used as a solution containing 100 mg of D-galactosamine (hereinafter referred to simply as “galactosamine”) per milliliter. Carbon tetrachloride (product of Wako Pure Chemical Industries) was used as a 50% (v/v) solution in olive oil (product of Wako Pure Chemical Industries). After 12-h fasting, the rats were administered intraperitoneally with galactosamine in a volume of 10 mL/kg or subcutaneously with the carbon tetrachloride solution at a volume of 4 mL/kg to induce hepatopathy. Immediately after the administration, the rats were anesthetized with ether and a catheter was inserted into the right cervical vein of each animal and retained in the central vein. The catheter in the central vein was passed under the skin to connect the blade bones, fitted with a harness, passed through a protective coil and connected to a swivel (Bio-Cannula of Biomedica). The rats were transferred into a metabolic cage and subjected to the experiment under a non-anesthetized and unconstrained condition. The experimental fluids were administered constantly with the pumping speed set at 100 mL/kg/day. The experimental fluids were administered for 1-4 days. The treated groups were two, one being a control group administered with a lactated Ringer's injection [[…] (registered trademark) of Otuka Seiyaku] and the other being an L-Val group administered with valine (L-valine added to lactated Ringer's injection to a concentration of 16.88 g/L). A non-treated (NT) group was also set. After the end of administration of the experimental fluids, the rats were anesthetized with ether and blood was taken from the abdominal aorta; thereafter, autopsy was done to collect liver samples.
# [2] = tested on: Rat Model of CC14-Induced Acute Hepatopathy; assay: Rat model of carbon tetrachloride-induced acute hepatopathy; format: in vivo; details: experimental fluids administered for two days; L-valine 16.88 g/L in lactated Ringer's, 100 mL/kg/day iv; mean ± SD
# Procedure: as §1
# [3] = tested on: Rat Model of Hepatic Insufficiency due to 90% Hepatectomy; assay: Rat model of hepatic insufficiency due to 90% hepatectomy; format: in vivo
# Text: Crj: Donryu male rats aged 8-9 weeks and weighing 250 g or so were used. During the experiment, the rats were given a dedicated feed MF (product of Oriental Yeast) and water ad libitum. After 12-h fasting, the rats were anesthetized with ether and a catheter was inserted into the right cervical vein of each animal and retained in the central vein. Subsequently, the rats were underwent 90% hepatectomy according to the method of Gaub et al. (J. Gaub et al., Hepatology, 4, 902-904, 1984). The catheter in the central vein was passed under the skin to connect the blade bones, fitted with a harness, passed through a protective coil and connected to a swivel (Bio-Cannula of Biomedica). The rats were transferred into a metabolic cage and subjected to the experiment under a non-anesthetized and unconstrained condition. The experimental fluids were administered constantly with the pumping speed set at 100 mL/kg/day. Immediately after the hepatectomy, 3 mL of a 20% glucose solution was administered to the rats subcutaneously; for 3 days after the hepatectomy, the rats were allowed to drink a 10% glucose solution and thereafter tap water. The experimental fluids were administered for 4 or 6 days. The treated groups were two, on being a control group administered with a lactated Ringer's injection [Lactec (registered trademark) of Otuka Seiyaku] and the other being an L-val group administered with valine (L-valine added to lactated Ringer's injection to a concentration of 16.88 g/L). A non-treated (NT) group was also set. After the end of the administration of the experimental fluids, the rats were anesthetized with ether and blood was taken from the abdominal aorta; thereafter, autopsy was done to collect liver samples.
# [4] = tested on: Rat Model of CCl4-Induced Chronic Hepatopathy; assay: Rat model of CCl4-induced chronic hepatopathy; format: in vivo; details: feed with 3 wt % L-valine for 14 weeks
# Procedure: Crj: Donryu male rats aged 8-9 weeks were used. During the experiment, the rats were given a dedicated feed MF (product of Oriental Yeast) and water ad libitum. Carbon tetrachloride (product of Wako Pure Chemical Industries) was dissolved in olive oil (product of Wako Pure Chemical Industries) to prepare a 50% (v/v) solution, which was administered subcutaneously to the rats for 14 weeks on a twice-a-week basis (to give 28 shots), each time at a dose of 2 mL/kg, thereby preparing models of chronic hepatopathy. During the 14-week experiment, the rats were given an experimental feed which was a dedicated feed MF; this was given as such to the control group and as a mixture with 3 wt % L-valine to the L-val group. A non-treated (NT) group was also set. After the end of the 14-week experiment, the rats were anesthetized with ether and blood was taken from the abdominal aorta; thereafter, autopsy was done to collect liver samples.
# [5] = tested on: Patient with chronic hepatitis C; assay: Peroral L-valine in patient with chronic hepatitis C; format: in vivo, human; details: 4-month period after start of oral L-valine 1 g three times a day; mean±SD of four monthly tests
# Text: Patient ([…]) with chronic hepatitis C was given oral administration of L-valine on a three-times-a-day basis, with one gram at each time. The average GOT and GPT levels of the patient for a 4-month period before the administration of L-valine were 89.0±21.9 IU/L and 91.5±23.1 IU/L, respectively, in terms of mean±SD obtained by four tests on a monthly basis. The average GOT and GPT levels for a 4-month-period after the start of valine administration were 68.3±20.4 IU/L and 73.0±24.3 IU/L, respectively, in terms of mean±SD obtained by four tests on a monthly basis; thus, significant (p<0.05 in t-test) decreases were observed. An ameliorating effect was also observed in platelet counts; the average platelet count for a 6-month period before the administration of L-valine was 15.7±1.7 (×10^4) in terms of mean±SD obtained by four tests on a monthly or bimonthly basis, whereas the average platelet count for a 4-month period after the start of valine administration was 20.4±0.9 (×104) in terms of mean±SD obtained by four tests on a monthly basis; thus, a significant (p<0.01 in t-test) increase was observed. It was therefore clear that L-valine is also effective in patients with chronic hepatitis.
# [6] = experimental fluids administered for four days, mean ± SD
# [7] = experimental fluids administered for six days, 20 animals
smiles,measurement,setting,value
"CC(C)[C@H](N)C(=O)O [L-Val, L-valine]",Alb,[1],2.5 ± 0.1 g/dL
same,Fischer ratio BCAA/AAA,[1],6.42 ± 0.40
same,GOT,[1],760.2 ± 215.4 IU/1
same,GPT,[1],415.7 ± 180.8 IU/1
same,LDH,[1],973.7 ± 362.0 IU/1
same,TP,[1],4.9 ± 0.3 g/dL
same,Fischer ratio BCAA/AAA,[2],4.32 ± 1.74
same,GOT,[2],3241.9 ± 2567.2 IU/1
same,GPT,[2],1951.2 ± 1730.9 IU/l
same,LDH,[2],3040.1 ± 4163.3 IU/l
same,TP,[2],5.1 ± 0.4 g/dL
same,Alb,[3]; [6],1.8 ± 0.2 g/dL
same,Fischer ratio BCAA/AAA,[3]; [6],3.33 ± 1.11
same,GOT,[3]; [6],402.3 ± 302.4 IU/l
same,GPT,[3]; [6],134.9 ± 76.3 IU/l
same,TP,[3]; [6],3.6 ± 0.5 g/dL
same,No. of deaths,[3]; [7],1
same,No. of viable cases,[3]; [7],19
same,Viability,"[3]; experimental fluids administered for six days, 20 animals, P < 0.01 vs control",95%
same,No. of deaths,[4]; 10 animals,0
same,No. of viable cases,[4]; 10 animals,10
same,Retention of ascites (No. of cases),[4]; 10 animals,1
same,Retention of pleural effusion (No. of cases),[4]; 10 animals,0
same,Fischer ratio BCAA/AAA,[4]; mean ± SD,3.17 ± 0.96
same,average GOT level,[5],68.3±20.4 IU/L
same,average GPT level,[5],73.0±24.3 IU/L
same,average platelet count,[5],20.4±0.9 ×104
